According to article PMC9741109, “Synthesis, In Silico and In Vivo Toxicity Assessment of Functionalized Pyridophenanthridinones via Sequential MW-Assisted Intramolecular Friedel-Crafts Alkylation and Direct C–H Arylation” (Molecules, 2022):
Several values for one entry are separate records, joined by “and”; a condition that tells them apart may be missing. Identical values can stand only once.

Columns and labels:
zebrafish embryos = test: in vivo; settings: toxicity scale class from zebrafish LC50 in mg/L
Text: (§1) The Zebrafish (Danio rerio) has been established as a modern experimental vertebrate model for assessing the toxicity of diverse synthetic and natural small molecules (SMs). […] Thus, these previously reported methodologies were adapted in our laboratory with slight modifications for the toxicological assessment of the selected pyridophenanthridin-6-one 4f and its corresponding precursors 6f–8f (Table 2).
(§2) Wild-type adult zebrafish of both sexes were separated in two tanks (30 L each), according to their gender, at 26 ± 2 °C under natural light-dark photoperiods. Fishes were fed twice daily, and the water quality was recorded weekly, in order to acclimate the fishes for at least two weeks before experiments begin. For the reproduction of the adult fishes, small breeding tanks were set up in the evening previous to the experiment, each containing three males and one female specimen. The tanks were isolated until the next morning when the lights switched on and the natural mating occurred, without any perturbation.
(§3) The adult fishes were returned to their corresponding tank and the embryos were collected, pooled, and washed with E3 medium and transferred into a 92 mm glass Petri dish. Further, the dead, delayed, malformed, and unfertilized embryos were identified under a dissecting microscope and removed by select aspiration with a pipette. This last procedure was repeated at 12 and 20 hpf in order to remove the unfit embryos. Throughout this period of time, the embryos were kept at 28 ± 2 °C in an incubator under natural light–dark photoperiods. The selected embryos of 24 hpf from the Petri dish were gently distributed into 96-well plates, placing a single embryo and 200 μL of E3 medium per well.
(§4) For this experiment, in total 72 embryos were required per sample in order to run three independent experiments in three different plates, and each compound was evaluated three times in the same plate, allowing the evaluation of four samples per plate. […] Each embryo was examined under a dissecting microscope and the statistical analysis was made using Regression Probit analysis with SPSS for windows version 19.0. Data are expressed as the standard error of the mean (SEM) of three different experiments in triplicate.

in vivo = settings: wild-type, zebrafish (Danio rerio), in vivo
Text: as §1, §2, §3, §4

[1] = LC50, zebrafish embryos, Figure 5 toxicity scale
[2] = Zebrafish LC50, zebrafish embryos, 96 hpf, 72 h exposure, mean ± SEM

| Structure (SMILES) | Aquatic Animal Acute Toxicity (zebrafish embryos) | LC50 (in vivo; [1]) [µM] | LC50 (in vivo; [2]) | LC50 at 72 h (in vivo; [1]) [µM] | LC50 at 72 h (in vivo; [2]) | LC50 at 72 h (in vivo; Zebrafish LC50, zebrafish embryos, 96 hpf, 72 h exposure, mean ± SEM, footnote c) [µM] |
| --- | --- | --- | --- | --- | --- | --- |
| CCc1cc2c3c(c1)C(c1ccccc1)CC(=O)N3Cc1ccccc1-2 (stereo not shown) [4f] | ST (slightly toxic 10–100 (ST)) | 67.8 | 67.8 µM and 60.2 µg/mL |  |  |  |
| COc1ccc(O)cc1C(C)(C)C [BHA 18, butylated hydroxyanisole] | ST (slightly toxic 10–100 (ST)) | 90.2 | 90.2 ± 1.15 µM |  |  |  |
| CCc1ccc2c(c1)C(c1ccccc1)CC(=O)N2Cc1ccccc1Br (stereo not shown) [6f] | ST (slightly toxic 10–100 (ST)) |  | 151 µM and 86.5 µg/mL |  |  |  |
| CCCCCCCCCCC[C@@H](C[C@@H]1OC(=O)[C@H]1CCCCCC)OC(=O)[C@H](CC(C)C)NC=O [Orlistat 15, orlistat] | ST (slightly toxic 10–100 (ST)) | 86 | 87 µM and 43.1 µg/mL |  |  |  |
| C=CCc1ccc(O)c(OC)c1 [Eugenol 19, eugenol] | ST (slightly toxic 10–100 (ST)) | 114 | 114 µM and 18.7 µg/mL |  |  |  |
| CC(C)Cn1cnc2c(N)nc3ccccc3c21 [Imiquimod 14, imiquimod] | ST (slightly toxic 10–100 (ST)) |  |  | 351 | 351 µM and 84.3 µg/mL |  |
| CC[C@@]1(O)C(=O)OCc2c1cc1n(c2=O)Cc2cc3ccccc3nc2-1 [Camptothecin 13, camptothecin] | T (super toxic 0–0.1 (T)) |  |  | 0.0038 |  | 0.00384 ± 0.00021 |
| CCc1ccc(NC(=O)/C=C/c2ccccc2)cc1 [8f] | ST (slightly toxic 10–100 (ST)) |  | 221 µM and 43.9 µg/mL |  |  |  |
| CCc1ccc(N(Cc2ccccc2Br)C(=O)/C=C/c2ccccc2)cc1 [7f] | ST (slightly toxic 10–100 (ST)) | 137 | 137 µM and 51.2 µg/mL |  |  |  |
